PMC2263054, “Functional evolution of the vitamin D and pregnane X receptors” (BMC Evolutionary Biology, 2007)
Where two headings read alike, the source gives them in different places.

Assays:
Human VDR = target: T1, Human VDR (Homo sapiens, UniProt P11473); experiment: luciferase reporter transactivation assay in HepG2-NTCP cells, full-length hVDR with CYP3A4-PXRE-Luc; details: HepG2-NTCP cells, luciferase reporter; unit not given; also cells saying No effect
T1 sequence (P11473 1-427): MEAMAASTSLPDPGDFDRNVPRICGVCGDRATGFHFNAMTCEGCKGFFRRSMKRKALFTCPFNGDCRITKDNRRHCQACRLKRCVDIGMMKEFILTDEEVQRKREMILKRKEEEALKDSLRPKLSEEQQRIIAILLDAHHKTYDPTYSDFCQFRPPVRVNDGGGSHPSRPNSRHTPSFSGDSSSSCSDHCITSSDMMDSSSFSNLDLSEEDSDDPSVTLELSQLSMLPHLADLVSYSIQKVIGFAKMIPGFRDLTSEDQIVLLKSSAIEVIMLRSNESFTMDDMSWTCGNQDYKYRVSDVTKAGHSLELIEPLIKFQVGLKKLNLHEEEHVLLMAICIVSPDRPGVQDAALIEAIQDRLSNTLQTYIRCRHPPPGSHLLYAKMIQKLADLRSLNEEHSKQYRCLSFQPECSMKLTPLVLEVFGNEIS

Mouse VDR = target: T2, Mouse VDR (Mus musculus, UniProt P48281); experiment: luciferase reporter transactivation assay in HepG2-NTCP cells, full-length mVDR with CYP3A4-PXRE-Luc; details: HepG2-NTCP cells, luciferase reporter; unit not given; also cells saying No effect
T2 sequence (P48281 1-422): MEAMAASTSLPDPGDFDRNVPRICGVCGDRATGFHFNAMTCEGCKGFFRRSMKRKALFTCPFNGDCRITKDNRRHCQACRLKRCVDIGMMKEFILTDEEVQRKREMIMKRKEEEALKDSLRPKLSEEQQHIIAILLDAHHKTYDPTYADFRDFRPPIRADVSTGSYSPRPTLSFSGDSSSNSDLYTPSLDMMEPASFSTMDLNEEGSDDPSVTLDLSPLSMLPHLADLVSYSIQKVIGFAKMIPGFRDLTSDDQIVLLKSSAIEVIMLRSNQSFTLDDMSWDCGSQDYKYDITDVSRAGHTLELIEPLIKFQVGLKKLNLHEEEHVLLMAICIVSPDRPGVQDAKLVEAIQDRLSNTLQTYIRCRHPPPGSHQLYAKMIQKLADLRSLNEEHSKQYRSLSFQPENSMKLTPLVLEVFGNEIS

[1] = tested on: glyceraldehyde 3-phosphate dehydrogenase (GAPDH); experiment: zebrafish in vivo liver transcription, semi-quantitative RT-PCR: GAPDH; details: 15 mg/kg intraperitoneally, single dose, 48 hr
Method: Adult zebrafish were purchased from a commercial fish supplier and acclimatized for at least two-weeks in 20 L tanks with flow-through freshwater at 22°C. A single dose of 15 mg/kg of 5α-cyprinol, 5β-cyprinol 27-sulfate, 5α-scymnol or 5β-scymnol-27 sulfate, dissolved in saline, was injected intraperitoneally. A control group was injected with saline. After 48 hr, the animals were decapitated and livers of three fish (n = 5 each group) were removed, pooled and weighed, totalizing 15 fish per group. Fish were not fed throughout the experimental period.
To study the transcription of CYP3C1, ABCB5, PXR, GAPDH and β-actin genes in zebrafish, initial fragments of these genes were identified (Genbank: AW202769, Genbank: BQ284593, Genbank: AAM22215, Genbank: BC083506, Genbank: AF057040, respectively). […] Primer pairs for amplifying CYP3C1 fragment were 5'-[…]-3' (sense) and 5'-[…]-3' (antisense) and for amplifying ABCB5 were 5'-[…]-3' (sense) and 5'-[…]-3' (antisense). The PCR primers for PXR were 5'-[…]-3' (sense) and 5'-[…]-3' (antisense), for amplifying GAPDH were 5'-[…]-3' (sense) and 5' […] 3' (antisense) and for β-actin were 5'-[…]-3' (sense) and 5'-[…]-3' (antisense). RNA was isolated using Trizol (Invitrogen) according to manufacturer's instructions. […] The RNA integrity was checked by non-denaturing gel electrophoresis using 1 μg of total RNA in each sample.
The PXR, CYP3C1, ABCB5 and GAPDH transcript levels were quantified using Gel-Quant™ (Multiplexed Biotechologies) and β-actin was used to normalize the data. The Shapiro-Wilk W test was used to evaluate normality. When data were parametric the analysis was performed using Student t test; otherwise Mann Whitney U test was applied.

zebrafish PXR = details: cited from earlier work

| SMILES | Human VDR EC50 ± SD (Human VDR) | Mouse VDR EC50 ± SD (Mouse VDR) | liver transcription of GAPDH [1] | activity at recombinant zebrafish PXR (zebrafish PXR; ref [29],[53]) | activity at recombinant zebrafish PXR (zebrafish PXR) |
| --- | --- | --- | --- | --- | --- |
| C[C@H](CCCC(CO)COS(=O)(=O)O)[C@H]1CC[C@H]2[C@@H]3[C@H](O)C[C@H]4C[C@H](O)CC[C@]4(C)[C@H]3C[C@H](O)[C@]12C (stereo partly drawn) [5α-Cyprinol 27-sulfate] | No effect | No effect | 2.38 ± 0.79 arbitrary units normalized to β-actin | efficacious activator of recombinant zebrafish PXR |  |
| C[C@H](CCCC(CO)CO)[C@H]1CC[C@H]2[C@@H]3[C@H](O)C[C@H]4C[C@H](O)CC[C@]4(C)[C@H]3C[C@H](O)[C@]12C [5α-Cyprinol, 5α-cholestan-3α,7α,12α,26,27-pentol] | No effect | No effect | 1.50 ± 0.88 arbitrary units normalized to β-actin |  | both inactive at recombinant zebrafish PXR |
